assay: Human HepG2 cell viability assay in 384 well format; type: toxicity, cell-based; design: dose 125 nL, time 70.5 hour; concentration not given beside the values; conditions: HepG2 cells, read-out: Inhibition

Compound	cytotoxicity at 70.5 h [%]
CCC(CN1CCCC1)n1cncc1-c1cnn(Cc2ccccc2)c1 (configuration not stated)	-4.48
CCn1c(C)nnc1SCCNC(=O)CC1CCc2ccccc21 (configuration not stated)	-18.5
Cc1cccc(C(C(=O)NCc2nc(-c3cccnc3)no2)N(C)C)c1 (configuration not stated)	19.5
CNC(=O)[C@H]1C[C@@H]2CN(Cc3csc(C)n3)C[C@@H]2N1S(C)(=O)=O	27.8
CC(NC(=O)c1cccs1)(C(N)=O)c1cccc(C(F)(F)F)c1 (configuration not stated)	-101
COc1ccc(OC)c(CN2CCN(Cc3cscn3)CC2)c1	-5.74
O=C(Nc1nccs1)C1CCN(Cc2cccc3c2OCCO3)CC1	6.98
COc1cc(C(=O)N2CCCC(n3ccnc3)C2)cc2c1OCCO2 (configuration not stated)	-7.87
CN(C)C(=O)c1cn2cc(-c3ccccc3Cl)n(CC3CC3)c(=O)c2n1	-3.22
COCCCN1CCCCC12CC(=O)N(Cc1ccccn1)C2 (configuration not stated)	-1.98
CCOCc1cccc(S(=O)(=O)N2CCSCC2)c1	-3.6
COc1cc(N2CCC(c3nccn3CCCN(C)C)CC2)nc(N)n1	-1.61
CC(=O)c1cc(CN2C[C@@H](CN3CCCC3)[C@@H](CO)C2)n(C)c1	-5.11
O=C(O)c1ccccc1C1CCN(Cc2ccc(-c3cc[nH]n3)o2)C1 (configuration not stated)	-2.33
Cc1cc(C(F)(F)F)cc(N2C[C@@H](CN(C)CCO)[C@@H](CO)C2)n1	2.18
Cc1nn(C)c(C)c1CCn1cncc1-c1ccc2c(c1)CC(C)N2C (configuration not stated)	4.43
O=C(C1CCCC1)N1C[C@@H]2CCN(c3cnccn3)C[C@@H]2C1	-1.88
CCc1nc(C2CCCN(C(=O)c3cccc(C(N)=O)c3)C2)no1 (configuration not stated)	1.02
COc1ccc(N2Cc3nc(N)ncc3C2=O)cc1Cl	-3.37

Compound	cytotoxicity at 70.5 h [%]
Cc1ccnn1CCC(=O)N1CCC(c2cnccn2)CC1	-7.09
Cc1cc(Cn2cc(C(C)Cc3ccc4c(c3)OCO4)nn2)n[nH]1 (configuration not stated)	-7.62
COc1ccc(C2=NOC(C(=O)N3CCCc4ccccc43)C2)cc1 (configuration not stated)	8.49
O=C(NCc1ccncc1)Nc1cc(C(F)(F)F)c[nH]c1=O	-2.18
CCc1nc(CNc2cc(Cl)ccc2OCC2CCCO2)no1 (configuration not stated)	-8.62
CCn1cc(CN2CCC(CNC(C)=O)CC2)cc1C#N	0.676
CN(Cc1nc(Cc2cccc(C(F)(F)F)c2)no1)CC1CCCCO1 (configuration not stated)	-11.5
O=C(CC1CCCC1)N1CCC(c2nnc(-c3ccccn3)o2)CC1	31.3
N#Cc1ccc(N2CCCC3(CCC(=O)N3CC3CC3)CC2)nc1 (configuration not stated)	-0.642
COc1cc2c(nn1)CCN(Cc1noc(-c3ccccc3)n1)C2	2.93
CC(C)c1cc(NC(=O)CN2CCCC2c2noc(C(C)C)n2)on1 (configuration not stated)	-12
CC1CCN(C(=O)NCC(=O)N(C)CC(F)(F)F)C1 (configuration not stated)	-4.12
O=C(c1ccoc1)N1C[C@@H]2OCCN(c3ncccn3)[C@@H]2C1	1.23
COCC(=O)Nc1ccc(-c2noc([C@@H]3CCCN3)n2)cn1	-0.348
O=C(C1CCCOC1)N1CCN(CC(F)(F)F)c2ccccc21 (configuration not stated)	-1.7
COc1ccc(COCC(O)CNC(=O)c2cc(C)cc(C)c2)cc1 (configuration not stated)	-11.8
CN1CC(C(=O)NCCc2ccc3c(c2)OCCO3)CC1=O (configuration not stated)	-1.68
Cc1cncc(NCc2ccccc2N2CCOCC2)c1	3.08
COCCN1CCC(CN(C)c2nc3c(s2)c(C)nn3C)C1 (configuration not stated)	-3.25

Compound	cytotoxicity at 70.5 h [%]
OCC(O)CSCc1nnc(-c2ccc(Cl)cc2)o1 (configuration not stated)	-13.7
Cc1cc(N2CCN(C(=O)c3cccnc3)CC2)nc(C)n1	-2.72
CNCC(=O)N1CCCCC1c1nccc(C)n1 (configuration not stated)	16.2
CN1CCOC(CN(C(=O)COc2ccccc2)c2nccs2)C1 (configuration not stated)	-4
Cc1noc(C)c1CNC(=O)N1CCCC(C)CC1 (configuration not stated)	-3.6
Fc1ccc(CNCC2Cn3nncc3CO2)cc1 (configuration not stated)	-7.4
COc1cc(C)nc(N2CCN(C(=O)CCc3cccs3)CC2)n1	-6.26
CN(C)S(=O)(=O)NCC1CCN(Cc2ccccc2F)CC1	-9.47
COc1cc(F)ccc1C(C(=O)O)N(C)CCN1CCCC1 (configuration not stated)	12.1
CNC(=O)c1ccc(CN(C)c2ccc(C(F)(F)F)cn2)cc1	6.65
CN(Cc1ccccn1)c1nccc(N2CCN[C@H]3CS(=O)(=O)C[C@H]32)n1	8.37
Cc1ccc(C(=O)N2C[C@@H]3CN(S(C)(=O)=O)CCO[C@@H]3C2)o1	-0.0736
Cc1nn(C)c(Cl)c1C1CCCN1C(=O)c1ccnn1C (configuration not stated)	-14.4
Cc1cc(C2CCCCN2C(=O)c2ccsc2)nc2nccn12 (configuration not stated)	6.22
CN(CCO)C[C@@H]1CN(C2CCN(c3ccccc3Cl)CC2)C[C@@H]1CO	-10.1
O=C(NCCc1ccncc1)c1cccc(S(=O)(=O)NC2CC2)c1	1.33
Cc1ccc(CC(=O)N2CCOCC2c2c(C)n[nH]c2C)cc1 (configuration not stated)	-21.7
CC(C)Cc1noc(CN2CCN(C(=O)c3cccc(F)c3)CC2)n1	-3.6
CN(C)C(=O)c1cccc(CNc2ccc(C#N)cn2)c1	5.12
